{"source": "patent US7943632B2", "about": "“High potency dopaminergic treatment of neurological impairment associated with brain injury” (NeuroHealing Pharmaceuticals, Inc., priority 2003, dated 2011)", "key": {"[1]": {"system": "patients of post-traumatic brain injury vegetative state (VS) and minimally conscious state (MCS)", "assay": "Apomorphine open label study, Disability Rating Scale", "format": "in vivo, human"}, "[2]": {"system": "patients of post-traumatic brain injury vegetative state (VS) and minimally conscious state (MCS)", "assay": "Apomorphine open label study, Coma/Near Coma (CNC) Scale", "format": "in vivo, human"}, "[3]": {"conditions": "cited from earlier work"}, "[4]": {"system": "D2-like dopamine receptors", "conditions": "cited from earlier work"}, "[5]": {"system": "patients of post-traumatic brain injury vegetative state (VS) and minimally conscious state (MCS)", "assay": "Apomorphine open label study, safety observations", "conditions": "Patient 02; approximately 4 months from the accident, dosing interrupted Day 47"}, "[6]": {"system": "patients of post-traumatic brain injury vegetative state (VS) and minimally conscious state (MCS)", "assay": "Apomorphine open label study, efficacy observations", "format": "in vivo, human", "experimental": "The patients received the maximum tolerated dose, 12 to 16 hours per day, for up to 84 days (or shorter or longer as indicated). If the patient developed an adverse event, the dose was reduced or eliminated, according to the opinion of the attending physician. To prevent side effects from dopaminergic stimulation (such as nausea), domperidone was administered starting 24-72 hours (h) prior to initiation of the drug therapy."}, "[7]": {"conditions": "cited from earlier work", "remark": "listed apart in the source"}, "[8]": {"system": "patients of post-traumatic brain injury vegetative state (VS) and minimally conscious state (MCS)", "assay": "Apomorphine open label study, Extended Glasgow Outcome Scale (GOS-E)", "format": "in vivo, human"}, "[9]": {"system": "patients of post-traumatic brain injury vegetative state (VS) and minimally conscious state (MCS)", "conditions": "in vivo"}, "[10]": {"system": "Patient 01, traumatic brain injury (TBI)", "assay": "Prior drug treatment in clinical history of Patient 01", "format": "in vivo, human", "conditions": "15 mg/day for 12 days, before apomorphine study"}, "[11]": {"conditions": "Patient 01, Day 7 of s.c. apomorphine"}, "[12]": {"conditions": "Patient 01, Day 180, study termination"}, "[13]": {"conditions": "Patient 02, Day 7 of s.c. apomorphine"}, "[14]": {"conditions": "Patient 03, Day 7 of s.c. apomorphine"}, "[15]": {"conditions": "Patient 03, Day 180, treatment discontinued Day 84"}}, "data": [{"molecule": "CN1CCc2cccc3c2[C@H]1Cc1ccc(O)c(O)c1-3", "note": "[apomorphine, (R)-5,6,6a,7-tetrahydro-6-methyl-4H-dibenzo[de,g]quinolin-10,11-diol]", "values": [{"measurement": "DRS", "setting": "[1]; Patient 01, Day 0 (baseline)", "result": 21}, {"measurement": "DRS", "setting": "[1]; [11]", "result": 13}, {"measurement": "DRS", "setting": "[1]; Patient 01, Day 14", "result": 13}, {"measurement": "DRS", "setting": "[1]; Patient 01, Day 21", "result": 12.5}, {"measurement": "DRS", "setting": "[1]; Patient 01, Day 28", "result": 12.5}, {"measurement": "DRS", "setting": "[1]; Patient 01, Day 42", "result": 12}, {"measurement": "DRS", "setting": "[1]; Patient 01, Day 56", "result": 10.5}, {"measurement": "DRS", "setting": "[1]; Patient 01, Day 70", "result": 10.5}, {"measurement": "DRS", "setting": "[1]; Patient 01, Day 84", "result": 10}, {"measurement": "DRS", "setting": "[1]; [12]", "result": 15}, {"measurement": "DRS", "setting": "[1]; Patient 02, Day 0 (baseline)", "result": 26}, {"measurement": "DRS", "setting": "[1]; [13]", "result": 24}, {"measurement": "DRS", "setting": "[1]; Patient 02, Day 14", "result": 19}, {"measurement": "DRS", "setting": "[1]; Patient 02, Day 21", "result": 22}, {"measurement": "DRS", "setting": "[1]; Patient 02, Day 28", "result": 22}, {"measurement": "DRS", "setting": "[1]; Patient 03, Day 0 (baseline)", "result": 23}, {"measurement": "DRS", "setting": "[1]; [14]", "result": 22}, {"measurement": "DRS", "setting": "[1]; Patient 03, Day 14", "result": 22}, {"measurement": "DRS", "setting": "[1]; Patient 03, Day 21", "result": 22}, {"measurement": "DRS", "setting": "[1]; Patient 03, Day 28", "result": 22}, {"measurement": "DRS", "setting": "[1]; Patient 03, Day 42", "result": 22}, {"measurement": "DRS", "setting": "[1]; Patient 03, Day 56", "result": 22}, {"measurement": "DRS", "setting": "[1]; Patient 03, Day 70", "result": 22}, {"measurement": "DRS", "setting": "[1]; Patient 03, Day 84", "result": 21}, {"measurement": "DRS", "setting": "[1]; [15]", "result": 12}, {"measurement": "CNC", "setting": "[2]; Patient 01, Day 0 (baseline)", "result": 20}, {"measurement": "CNC", "setting": "[2]; [11]", "result": 2}, {"measurement": "CNC", "setting": "[2]; Patient 01, Day 14", "result": 0}, {"measurement": "CNC", "setting": "[2]; Patient 01, Day 21", "result": 0}, {"measurement": "CNC", "setting": "[2]; Patient 01, Day 28", "result": 0}, {"measurement": "CNC", "setting": "[2]; Patient 01, Day 42", "result": 0}, {"measurement": "CNC", "setting": "[2]; Patient 01, Day 56", "result": 0}, {"measurement": "CNC", "setting": "[2]; Patient 01, Day 70", "result": 0}, {"measurement": "CNC", "setting": "[2]; Patient 01, Day 84", "result": 0}, {"measurement": "CNC", "setting": "[2]; [12]", "result": 0}, {"measurement": "CNC", "setting": "[2]; Patient 02, Day 0 (baseline)", "result": 36}, {"measurement": "CNC", "setting": "[2]; Patient 02, Day 0 (baseline), listed as Apomorphine", "result": 37}, {"measurement": "CNC", "setting": "[2]; [13]", "result": 33}, {"measurement": "CNC", "setting": "[2]; Patient 02, Day 14", "result": 24}, {"measurement": "CNC", "setting": "[2]; Patient 02, Day 21", "result": 24}, {"measurement": "CNC", "setting": "[2]; Patient 02, Day 28", "result": 24}, {"measurement": "CNC", "setting": "[2]; Patient 02, Day 42", "result": 26}, {"measurement": "CNC", "setting": "[2]; Patient 03, Day 0 (baseline)", "result": 33}, {"measurement": "CNC", "setting": "[2]; [14]", "result": 22}, {"measurement": "CNC", "setting": "[2]; Patient 03, Day 14", "result": 18}, {"measurement": "CNC", "setting": "[2]; Patient 03, Day 21", "result": 12}, {"measurement": "CNC", "setting": "[2]; Patient 03, Day 28", "result": 12}, {"measurement": "CNC", "setting": "[2]; Patient 03, Day 42", "result": 16}, {"measurement": "CNC", "setting": "[2]; Patient 03, Day 56", "result": 16}, {"measurement": "CNC", "setting": "[2]; Patient 03, Day 70", "result": 12}, {"measurement": "CNC", "setting": "[2]; Patient 03, Day 84", "result": 8}, {"measurement": "CNC", "setting": "[2]; [15]", "result": 0}, {"measurement": "Incidence of psychological effects", "setting": "[3]; compared with other dopaminergic agents", "result": "lower incidence of psychological effects"}, {"measurement": "Injection site reaction", "setting": "[3]; subcutaneous administration at a concentration of 10 mg/ml", "result": "nodule formation (panniculitis) may occur"}, {"measurement": "Affinity for D2-like dopamine receptors", "setting": "[4]", "result": "particularly high affinity"}, {"measurement": "Patient outcome", "setting": "[5]", "result": "died"}, {"measurement": "Efficacy observation", "setting": "[6]; Patient 01, Day 1, hours after initial dosing, 2 mg/h", "result": "moved right thumb to command"}, {"measurement": "Efficacy observation", "setting": "[6]; Patient 01, Day 2, 4 mg/h", "result": "moved limbs on command and answered yes/no questions"}, {"measurement": "Efficacy observation", "setting": "[6]; Patient 01, Day 3, 6 mg/h", "result": "Spoke by phone with sibling and named four friends in their room"}, {"measurement": "Efficacy observation", "setting": "[6]; Patient 01, Day 4, 8 mg/h", "result": "named objects and associated them with their function"}, {"measurement": "Efficacy observation", "setting": "[6]; Patient 01, Day 5, 8 mg/h", "result": "oriented to physician's last name and name of the institution"}, {"measurement": "Effect of pump remaining off for two hours", "setting": "[6]; Patient 01, Day 18", "result": "decrease in their awareness status"}, {"measurement": "Time to regain “on” status after reconnection of the pump", "setting": "[6]; Patient 01, Day 18", "result": "≤ 15", "unit": "min"}, {"measurement": "Effect of attempt to discontinue the treatment", "setting": "[6]; Patient 01, Day 84", "result": "regressed to an “off” state"}, {"measurement": "Day of trial on which patient started to follow simple commands", "setting": "[6]; Patient 02", "result": 9}, {"measurement": "Efficacy observation", "setting": "[6]; Patient 02, first two weeks of drug administration, maintained until the bleeding event", "result": "improvement in the patient's consciousness state"}, {"measurement": "Efficacy observation", "setting": "[6]; Patient 03, Day 2", "result": "started to vocalize words"}, {"measurement": "Efficacy observation", "setting": "[6]; Patient 03, Day 62", "result": "started to clearly respond to commands, recognize family members, respond to their name and respond to their age"}, {"measurement": "Effect of first attempt to discontinue drug", "setting": "[6]; Patient 03, Day 84", "result": "maintained their motor and cognitive improvements"}, {"measurement": "Overall efficacy on altered consciousness state", "setting": "[6]; Patients 01, 02 and 03 after traumatic brain injury", "result": "effective at improving the altered consciousness state"}, {"measurement": "Absorption and clearance", "setting": "[7]; from subcutaneous tissues", "result": "rapidly and completely absorbed from subcutaneous tissues and is rapidly cleared"}, {"measurement": "Absorption", "setting": "[7]; parenterally administered", "result": "rapidly and completely absorbed"}, {"measurement": "GOS-E", "setting": "[8]; Patient 01, Day 7", "result": 3}, {"measurement": "GOS-E", "setting": "[8]; Patient 01, Day 14", "result": 3}, {"measurement": "GOS-E", "setting": "[8]; Patient 01, Day 84", "result": 3}, {"measurement": "GOS-E", "setting": "[8]; [12]", "result": 3}, {"measurement": "GOS-E", "setting": "[8]; Patient 03, Day 84", "result": 3}, {"measurement": "GOS-E", "setting": "[8]; Patient 03, baseline", "result": 2}, {"measurement": "Adverse event", "setting": "[9]", "result": "seizure"}, {"measurement": "Adverse events", "setting": "[9]", "result": "agitation and fever"}, {"measurement": "Dyskinesias and hallucinations after dose reduction", "setting": "[9]", "result": "disappeared"}, {"measurement": "ECG and clinical labs", "setting": "[9]", "result": "no abnormal values"}, {"measurement": "Tolerability of dose escalation", "setting": "[9]; sc", "result": "well tolerated"}]}, {"molecule": "COC(=O)C(c1ccccc1)C1CCCCN1", "note": "(stereo not drawn) [methylphenidate]", "values": [{"measurement": "Response to treatment", "setting": "[10]", "result": "no response to treatment"}]}]}
